Read-outs that look alike come from different tables or passages of the source.
Columns and labels:
[1] = target: T1, ligand-binding domain (LBD) of LXRα (Homo sapiens, UniProt Q13133); test: LXR Gal4 reporter transient transfection assay (LBD-M2H Gal4α); type: cell-based; details: HEK293 cells, LXRα LBD; read-out: LBD-M2H Gal4α (EC50 range)
T1 construct: expressed in transfected cells; host or cells: HEK293
T1 sequence (Q13133 155-447): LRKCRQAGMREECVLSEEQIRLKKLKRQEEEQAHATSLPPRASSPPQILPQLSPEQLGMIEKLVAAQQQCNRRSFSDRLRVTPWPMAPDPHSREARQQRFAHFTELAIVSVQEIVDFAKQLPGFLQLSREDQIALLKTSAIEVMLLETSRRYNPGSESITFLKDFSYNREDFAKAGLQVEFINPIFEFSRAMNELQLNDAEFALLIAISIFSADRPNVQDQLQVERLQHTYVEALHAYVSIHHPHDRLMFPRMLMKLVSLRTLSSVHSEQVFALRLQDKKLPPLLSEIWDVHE
Procedure, shortened: (§1)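 Mammalian two-hybrid in HEK293: AD-LXR (FL or LBD) + BD-cofactor (SRC1 coactivator or NCoR corepressor domain), pFR-Luc reporter, pRL-CMV normaliser; PEI transfection. Compound added 4 h later (DMSO ≤0.2% final), 16 h incubation at 37 °C. Firefly/Renilla luminescence measured sequentially in lysate.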

[2] = Pharmacokinetics in mice after single oral dosing (blood/plasma and liver exposure); type: in vivo, mice (C57/bl6/J)
Procedure: The pharmacokinetics of the compounds was assessed in mice after single dosing and oral administrations. Blood/plasma and liver exposure was measured via LC-MS.
The study design was as follows:
Animals: C57/bl6/J (Janvier) males
Diet: standard rodent chow
Animal handling: animals were withdrawn from food at least 12 h before administration
Design: single dose oral administration, n=3 animals per group
Sacrifice: at stated time point (4, 12 or 24 h) after administration
Bioanalytics: LC-MS of liver and blood/plasma samples

full length (FL) LXRα = target: T2, full length (FL) LXRα (Homo sapiens, UniProt Q13133); test: LXR Gal4 reporter transient transfection assay (FL-M2H Gal4α); type: cell-based; details: HEK293 cells, full length LXRα; read-out: FL-M2H Gal4α (EC50 range)
T2 construct: the full length (FL) proteins of LXRα (amino acids 1-447); NP005684; expressed in transfected cells; host or cells: HEK293
T2 sequence (Q13133 1-447): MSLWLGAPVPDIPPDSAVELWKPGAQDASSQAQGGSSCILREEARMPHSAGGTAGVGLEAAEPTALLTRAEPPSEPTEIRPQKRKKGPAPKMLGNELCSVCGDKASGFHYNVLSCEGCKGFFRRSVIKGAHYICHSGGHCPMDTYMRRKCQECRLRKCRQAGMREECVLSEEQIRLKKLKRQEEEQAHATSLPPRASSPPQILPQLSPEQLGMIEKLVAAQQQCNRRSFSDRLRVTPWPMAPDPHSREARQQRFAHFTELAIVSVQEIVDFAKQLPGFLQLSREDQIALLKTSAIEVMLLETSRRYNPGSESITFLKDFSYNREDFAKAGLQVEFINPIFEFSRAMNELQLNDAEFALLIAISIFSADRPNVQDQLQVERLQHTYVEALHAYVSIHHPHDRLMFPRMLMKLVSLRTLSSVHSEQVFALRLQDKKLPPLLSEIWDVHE
Procedure, shortened: as §1

[3] = target: T3, ligand-binding domain (LBD) of LXRβ (Homo sapiens, UniProt P55055, DUP175-175); test: LXR Gal4 reporter transient transfection assay (LBD-M2H Gal4β); type: cell-based; details: HEK293 cells, LXRβ LBD; read-out: LBD-M2H Gal4β (EC50 range)
T3 construct: LXRβ (amino acids 156-461); expressed in transfected cells; host or cells: HEK293
T3 sequence (P55055 with tags, fused parts or gaps DUP175-175 limits assumed): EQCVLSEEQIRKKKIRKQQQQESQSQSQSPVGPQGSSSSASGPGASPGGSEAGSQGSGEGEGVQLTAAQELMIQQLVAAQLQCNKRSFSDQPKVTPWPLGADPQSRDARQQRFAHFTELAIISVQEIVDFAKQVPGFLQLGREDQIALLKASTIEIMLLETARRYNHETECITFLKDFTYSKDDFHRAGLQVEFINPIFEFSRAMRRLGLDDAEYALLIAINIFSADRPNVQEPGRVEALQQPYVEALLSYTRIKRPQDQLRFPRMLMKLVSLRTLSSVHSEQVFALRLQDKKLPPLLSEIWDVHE
Procedure, shortened: as §1

full length (FL) LXRβ = target: T4, full length (FL) LXRβ (Homo sapiens, UniProt P55055, DUP175-175); test: LXR Gal4 reporter transient transfection assay (FL-M2H Gal4β); type: cell-based; details: HEK293 cells, full length LXRβ; read-out: FL-M2H Gal4β (EC50 range)
T4 construct: the full length (FL) proteins of LXRα (amino acids 1-447); NP005684; NP009052; expressed in transfected cells; host or cells: HEK293
T4 sequence (P55055 with tags, fused parts or gaps DUP175-175): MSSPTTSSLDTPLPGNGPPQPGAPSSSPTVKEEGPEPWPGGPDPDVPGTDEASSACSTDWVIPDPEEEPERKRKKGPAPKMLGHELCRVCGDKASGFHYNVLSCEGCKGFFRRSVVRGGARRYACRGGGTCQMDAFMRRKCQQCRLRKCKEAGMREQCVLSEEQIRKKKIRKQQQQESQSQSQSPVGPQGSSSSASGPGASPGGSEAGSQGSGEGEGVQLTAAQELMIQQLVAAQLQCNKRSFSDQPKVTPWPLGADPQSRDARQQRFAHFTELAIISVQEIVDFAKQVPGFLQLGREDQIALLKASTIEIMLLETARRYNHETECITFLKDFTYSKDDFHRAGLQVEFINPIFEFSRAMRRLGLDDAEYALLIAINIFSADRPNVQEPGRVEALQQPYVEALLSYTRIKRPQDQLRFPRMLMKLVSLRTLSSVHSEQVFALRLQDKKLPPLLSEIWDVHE
Procedure, shortened: as §1

[4] = rat liver microsomal assay; cited from earlier work
[5] = human liver microsomal assay; cited from earlier work
[6] = 20 mg/kg single oral dose, time point 4 h

| EC50 [1] [nM] | blood/plasma exposure [2, 6] | liver exposure [2, 6] | liver/blood ratio [2, 6] | EC50 (full length (FL) LXRα) [nM] | EC50 [3] [nM] | EC50 (full length (FL) LXRβ) [nM] | blood/plasma exposure (below LLOQ, LLOQ given) [2, 6] | liver exposure (below LLOQ, LLOQ given) [2, 6] | oral bioavailability (in words) ([2]; oral administration) | SMILES | clearance (Clint) [4] [mL/min/mg protein] | clearance (Clint) [5] [mL/min/mg protein] |
| --- | --- | --- | --- | --- | --- | --- | --- | --- | --- | --- | --- | --- |
| < 100 | D (D: <100 nM) | C (C: 1 μM to ≤3 μM) | D (D: >30) | < 100 | < 100 | < 100 | – | – | – | N#Cc1sccc1-c1c(-c2cccc(C3CC3C(=O)O)c2)n(S(=O)(=O)c2ccc(Cl)cc2)c2ccc(F)cc12 (stereo not drawn) [3/24] | – | – |
| – | – | – | – | – | – | – | (14.4 ng/mL) | (9.6 ng/mL) | not orally bioavailable | Cc1cc(C)c(S(=O)(=O)N(Cc2ccc(-c3cccc(S(C)(=O)=O)c3)cc2)Cc2ccc(C(F)(F)F)o2)c(C)c1 [GSK2033, reference compound] | > 1.0 | > 1.0 |

From patent US11618747B2, “LXR modulators with bicyclic core moiety” (OrsoBio, Inc., priority 2018, dated 2023)
